Results taken from patent US20060078622A1, “Pharmaceutical formulations containing microparticles or nanoparticles of a delivery agent” (priority 2004, published 2006).
Values belong to the compound of their own block, whether it stands above or below them.

Experiments:
[1] = Particle size determination by laser diffraction (Malvern Mastersizer 2000); assay type: physicochemical
Protocol: The terms “diameter” and “median particle size” are generally used to refer to the dimensions of particles, micro-beads, and granules. The “median particle size” or “diameter” was determined as follows for Examples 8, 9, 10.
The Malvern Mastersizer 2000 determines particle size by laser diffraction and model fitting. A well-dispersed sample in any two-phase system (e.g., powders, suspensions, or emulsions) is introduced into the path of a He—Ne laser focused with a lens of a length suitable for particle sizes present in the sample. The scattering pattern of particles in the laser path is measured by an array of detectors, with each detector measuring data from a particular range of angles.
The Malvern apparatus assumes that the particles being measured are perfect spheres. For non-spherical particles the resulting particle size distribution may be different from those obtained by methods based on others principles. The electronic measurements will often have to be accompanied by microscopic investigation to determine the type of particles being investigated. For irregularly shaped particles, the particle size data obtained from Mastersizer 2000 will be interpreted as the diameter of an imaginary sphere that is equivalent in volume to the measured particle. (Note: d(0.1) is the size of particle for which 10% of the sample is below this size, d(0.5) is the size of particle for which 50% of the sample is below this size, and d(0.9) is the size of particle for which 90% of the sample is below this size.
Generally, this apparatus measures one dimension of a, e.g., particle as it travels past a laser; i.e., it measures the length of a straight line through the particle. […] However, a measurement is taken of a number of particles and a median diameter or size is calculated. Thus, “size” or “diameter” figures are estimates of the median “size” or “diameter” of particles. Alternatively, “diameter” or “size” was measured by a sieve method described in Example 1. “Diameter” should not be read to necessarily imply a spherical shape or a circular dimension, though in certain embodiments, e.g., particles may have rounded edges or generally spherical shapes.
(§1) SNAD was screened through a 35 mesh Tyler standard sieve. The SNAD was milled with a Glen Mills, Model S100 centrifugal ball mill (Clifton, N.J.) equipped with a 250 mL stainless steel grinding jar and 30 mm (440 c) diameter stainless steel balls was used. The process parameters investigated were (1) number of balls used, (2) duration of milling, (3) milling speed, and (4) milling jar total charge. A Malvern Mastersizer 2000 equipped with a Scirocco 2000 dry accessory was used for particle size determination. A Kratos XRD 6000 (version 4.1) X-ray powder diffractometer scanning over the 2θ range 5-40° 2θ was used for monitoring crystallinity changes. The diverging, scattering, and receiving slits were 1°, 1°, and 0.3 mm respectively. A Brinkmann 737 KF coulometer was used for moisture content determination while a Quantachrome Nova 3000 Series Surface Area Analyzer was used for specific surface area determination.

[2] = X-ray powder diffraction and Karl Fischer moisture content after milling; assay type: physicochemical; conditions: ball milled
Protocol: as §1, with “The diverging, scattering, and receiving slits were 1°, 1°, and 0.3 mm respectively.” left out

[3] = acid and salts; cited from earlier work
[4] = in vivo; cited from earlier work
[5] = ball milled, milling time of 120 minutes

particle size d(0.5) ([1]; micronized, 2 balls at 200 rpm for 120 minutes): 7.574 μm
SMILES: O=C([O-])CCCCCCCNC(=O)c1ccccc1O.[Na+] [SNAC, monosodium salt of N-(8-[2-hydroxybenzoyl]-amino)caprylic acid]

particle size d(0.9) ([1]; ball milled at 300 rpm): 62.9 μm
particle size d(0.1) ([1]; ball milled, 2 balls): 1.1 μm
particle size d(0.5) ([1]; ball milled, 2 balls): 12.0 μm
particle size d(0.9) ([1]; ball milled, 2 balls): 154.3 μm
particle size d(0.1) [1, 5]: 2.0 μm
particle size d(0.5) [1, 5]: 15.4 μm
particle size d(0.9) [1, 5]: 62.9 μm
particle size d(0.1) ([1]; pre-screened (unmilled)): 1.6 μm
particle size d(0.5) ([1]; pre-screened (unmilled)): 10.5 μm
particle size d(0.9) ([1]; pre-screened (unmilled)): 314.9 μm
crystallinity changes on milling (powder X-ray diffraction) [2]: did not result in crystallinity changes
SMILES: O=C([O-])CCCCCCCCCNC(=O)c1ccccc1O.[Na+] [SNAD, monosodium salt of N-(10-[2-hydroxybenzoyl]-amino)decanoic acid]
changes in moisture content on milling (Karl Fischer) [2]: no significant changes in moisture content

SMILES: O=C(O)CCCCCCCNC(=O)c1cc(Cl)ccc1O [5 CNAC acid, N-(5-chlorosalicyloyl)-8-aminocaprylic acid]
water solubility [3]: very water soluble

SMILES: O=C(O)CCCCCCCCCNC(=O)c1ccccc1O [SNAD acid, N-(10-[2-hydroxybenzoyl]-amino) decanoic acid]
absorbed by the gastro-intestinal tract [4]: greater than 90%
